# Source: patent publication US11236129B2, “IL-17A binding peptides and medical uses thereof” (Dompe' Farmaceutici S.P.A., priority 2018, dated 2022)
# Residues, ends and D or L forms follow the SMILES beside them.
# Target: IL-17RA/IL17RC dimerization induced by IL-17A (Homo sapiens, UniProt Q16552)
# Assay: IL-17RA/IL17RC dimerization assay in response to IL-17A (PathHunter Cytokine Receptor Assay)
# Assay type: cell-based
# Conditions: IL-17A at EC80; read-out: IC50 in IL-17RA/IL7RC dimerization assay
# In short: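 PathHunter cells with IL-17RA and IL-17RC tagged for β-galactosidase complementation were preincubated 60 min with peptide (1% vehicle). IL-17A was then added at EC80 for 6–16 h at 37 °C, and chemiluminescence was read. Inhibition is relative to the EC80 and vehicle controls.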
# IL-17RA/IL17RC dimerization induced by IL-17A, sequence (Q16552 24-155): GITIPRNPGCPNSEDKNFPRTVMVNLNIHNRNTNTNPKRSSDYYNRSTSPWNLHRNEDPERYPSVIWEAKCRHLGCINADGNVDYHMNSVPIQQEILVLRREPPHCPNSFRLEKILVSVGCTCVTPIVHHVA
row,Structure (SMILES),IC50
1,CC[C@H](C)[C@H](NC(C)=O)C(=O)N[C@@H](Cc1c[nH]cn1)C(=O)N[C@@H](Cc1ccc(O)cc1)C(=O)N[C@H](C(=O)N[C@H](C(=O)N1CCC[C@H]1C(=O)N[C@@H](C)C(=O)N[C@@H](CC(=O)O)C(=O)N[C@@H](CC(C)C)C(=O)N[C@@H](Cc1c[nH]c2ccccc12)C(=O)N[C@@H](CC(=O)O)C(=O)N[C@@H](Cc1c[nH]c2ccccc12)C(=O)N[C@H](C(=O)N[C@@H](CC(N)=O)C(=O)N[C@@H](CCCCN)C(N)=O)[C@@H](C)CC)[C@@H](C)CC)[C@@H](C)O [SEQ ID NO: 172] (Ac-IHYTIPADLWDWINK-NH2),< 10 µM
2,CC[C@H](C)[C@H](NC(C)=O)C(=O)N[C@@H](Cc1c[nH]cn1)C(=O)N[C@@H](Cc1c[nH]c2ccccc12)C(=O)N[C@H](C(=O)N[C@H](C(=O)N1CCC[C@H]1C(=O)N[C@@H](C)C(=O)N[C@@H](CC(=O)O)C(=O)N[C@@H](CC(C)C)C(=O)N[C@@H](Cc1c[nH]c2ccccc12)C(=O)N[C@@H](CC(=O)O)C(=O)N[C@@H](Cc1c[nH]c2ccccc12)C(=O)N[C@H](C(=O)N[C@@H](CC(N)=O)C(=O)N[C@@H](CCCCN)C(N)=O)[C@@H](C)CC)[C@@H](C)CC)[C@@H](C)O [SEQ ID NO: 173] (Ac-IHWTIPADLWDWINK-NH2),< 10 µM
3,CC[C@H](C)[C@H](NC(C)=O)C(=O)N[C@@H](Cc1c[nH]cn1)C(=O)N[C@@H](Cc1ccccc1)C(=O)N[C@H](C(=O)N[C@H](C(=O)N1CCC[C@H]1C(=O)N[C@@H](C)C(=O)N[C@@H](CC(=O)O)C(=O)N[C@@H](CC(C)C)C(=O)N[C@@H](Cc1c[nH]c2ccccc12)C(=O)N[C@@H](CC(=O)O)C(=O)N[C@@H](Cc1c[nH]c2ccccc12)C(=O)N[C@H](C(=O)N[C@@H](CC(N)=O)C(=O)N[C@@H](CCCCN)C(N)=O)[C@@H](C)CC)[C@@H](C)CC)[C@@H](C)O [SEQ ID NO: 174] (Ac-IHFTIPADLWDWINK-NH2),< 10 µM
4,CC[C@H](C)[C@H](NC(C)=O)C(=O)N[C@@H](Cc1c[nH]cn1)C(=O)N[C@H](C(=O)N[C@@H](CO)C(=O)N[C@H](C(=O)N1CCC[C@H]1C(=O)N[C@@H](C)C(=O)N[C@@H](CC(=O)O)C(=O)N[C@@H](CC(C)C)C(=O)N[C@@H](Cc1c[nH]c2ccccc12)C(=O)N[C@@H](CC(=O)O)C(=O)N[C@@H](Cc1c[nH]c2ccccc12)C(=O)N[C@H](C(=O)N[C@@H](CC(N)=O)C(=O)N[C@@H](CCCCN)C(N)=O)[C@@H](C)CC)[C@@H](C)CC)C(C)C [SEQ ID NO: 175] (Ac-IHVSIPADLWDWINK-NH2),< 10 µM
5,CC[C@H](C)[C@H](NC(C)=O)C(=O)N[C@@H](Cc1c[nH]cn1)C(=O)N[C@H](C(=O)N[C@@H](Cc1ccc(O)cc1)C(=O)N[C@H](C(=O)N1CCC[C@H]1C(=O)N[C@@H](C)C(=O)N[C@@H](CC(=O)O)C(=O)N[C@@H](CC(C)C)C(=O)N[C@@H](Cc1c[nH]c2ccccc12)C(=O)N[C@@H](CC(=O)O)C(=O)N[C@@H](Cc1c[nH]c2ccccc12)C(=O)N[C@H](C(=O)N[C@@H](CC(N)=O)C(=O)N[C@@H](CCCCN)C(N)=O)[C@@H](C)CC)[C@@H](C)CC)C(C)C [SEQ ID NO: 176] (Ac-IHVYIPADLWDWINK-NH2),< 10 µM
6,CC[C@H](C)[C@H](NC(C)=O)C(=O)N[C@@H](Cc1c[nH]cn1)C(=O)N[C@H](C(=O)N[C@@H](CC(N)=O)C(=O)N[C@H](C(=O)N1CCC[C@H]1C(=O)N[C@@H](C)C(=O)N[C@@H](CC(=O)O)C(=O)N[C@@H](CC(C)C)C(=O)N[C@@H](Cc1c[nH]c2ccccc12)C(=O)N[C@@H](CC(=O)O)C(=O)N[C@@H](Cc1c[nH]c2ccccc12)C(=O)N[C@H](C(=O)N[C@@H](CC(N)=O)C(=O)N[C@@H](CCCCN)C(N)=O)[C@@H](C)CC)[C@@H](C)CC)C(C)C [SEQ ID NO: 177] (Ac-IHVNIPADLWDWINK-NH2),< 10 µM
7,CC[C@H](C)[C@H](NC(C)=O)C(=O)N[C@@H](Cc1c[nH]cn1)C(=O)N[C@H](C(=O)N[C@@H](CCC(N)=O)C(=O)N[C@H](C(=O)N1CCC[C@H]1C(=O)N[C@@H](C)C(=O)N[C@@H](CC(=O)O)C(=O)N[C@@H](CC(C)C)C(=O)N[C@@H](Cc1c[nH]c2ccccc12)C(=O)N[C@@H](CC(=O)O)C(=O)N[C@@H](Cc1c[nH]c2ccccc12)C(=O)N[C@H](C(=O)N[C@@H](CC(N)=O)C(=O)N[C@@H](CCCCN)C(N)=O)[C@@H](C)CC)[C@@H](C)CC)C(C)C [SEQ ID NO: 178] (Ac-IHVQIPADLWDWINK-NH2),< 10 µM
8,CC[C@H](C)[C@H](NC(C)=O)C(=O)N[C@@H](Cc1c[nH]cn1)C(=O)N[C@H](C(=O)N[C@H](C(=O)N[C@@H](C)C(=O)N1CCC[C@H]1C(=O)N[C@@H](C)C(=O)N[C@@H](CC(=O)O)C(=O)N[C@@H](CC(C)C)C(=O)N[C@@H](Cc1c[nH]c2ccccc12)C(=O)N[C@@H](CC(=O)O)C(=O)N[C@@H](Cc1c[nH]c2ccccc12)C(=O)N[C@H](C(=O)N[C@@H](CC(N)=O)C(=O)N[C@@H](CCCCN)C(N)=O)[C@@H](C)CC)[C@@H](C)O)C(C)C [SEQ ID NO: 179] (Ac-IHVTAPADLWDWINK-NH2),< 10 µM
9,CC[C@H](C)[C@H](NC(C)=O)C(=O)N[C@@H](Cc1c[nH]cn1)C(=O)N[C@H](C(=O)N[C@H](C(=O)NCC(=O)N1CCC[C@H]1C(=O)N[C@@H](C)C(=O)N[C@@H](CC(=O)O)C(=O)N[C@@H](CC(C)C)C(=O)N[C@@H](Cc1c[nH]c2ccccc12)C(=O)N[C@@H](CC(=O)O)C(=O)N[C@@H](Cc1c[nH]c2ccccc12)C(=O)N[C@H](C(=O)N[C@@H](CC(N)=O)C(=O)N[C@@H](CCCCN)C(N)=O)[C@@H](C)CC)[C@@H](C)O)C(C)C [SEQ ID NO: 180] (Ac-IHVTGPADLWDWINK-NH2),< 10 µM
10,CC[C@H](C)[C@H](NC(C)=O)C(=O)N[C@@H](Cc1c[nH]cn1)C(=O)N[C@H](C(=O)N[C@H](C(=O)N[C@@H](CC(C)C)C(=O)N1CCC[C@H]1C(=O)N[C@@H](C)C(=O)N[C@@H](CC(=O)O)C(=O)N[C@@H](CC(C)C)C(=O)N[C@@H](Cc1c[nH]c2ccccc12)C(=O)N[C@@H](CC(=O)O)C(=O)N[C@@H](Cc1c[nH]c2ccccc12)C(=O)N[C@H](C(=O)N[C@@H](CC(N)=O)C(=O)N[C@@H](CCCCN)C(N)=O)[C@@H](C)CC)[C@@H](C)O)C(C)C [SEQ ID NO: 181] (Ac-IHVTLPADLWDWINK-NH2),< 10 µM
11,CC[C@H](C)[C@H](NC(C)=O)C(=O)N[C@@H](Cc1c[nH]cn1)C(=O)N[C@H](C(=O)N[C@H](C(=O)N1CCC[C@H]1C(=O)N1CCC[C@H]1C(=O)N[C@@H](C)C(=O)N[C@@H](CC(=O)O)C(=O)N[C@@H](CC(C)C)C(=O)N[C@@H](Cc1c[nH]c2ccccc12)C(=O)N[C@@H](CC(=O)O)C(=O)N[C@@H](Cc1c[nH]c2ccccc12)C(=O)N[C@H](C(=O)N[C@@H](CC(N)=O)C(=O)N[C@@H](CCCCN)C(N)=O)[C@@H](C)CC)[C@@H](C)O)C(C)C [SEQ ID NO: 182] (Ac-IHVTPPADLWDWINK-NH2),< 10 µM
12,CC[C@H](C)[C@H](NC(C)=O)C(=O)N[C@@H](Cc1c[nH]cn1)C(=O)N[C@H](C(=O)N[C@H](C(=O)N[C@H](C(=O)N1CCC[C@H]1C(=O)N[C@@H](C)C(=O)N[C@@H](CC(=O)O)C(=O)N[C@@H](CC(C)C)C(=O)N[C@@H](Cc1c[nH]c2ccccc12)C(=O)N[C@@H](CC(=O)O)C(=O)N[C@@H](Cc1c[nH]c2ccccc12)C(=O)N[C@H](C(=O)N[C@@H](CC(N)=O)C(=O)N[C@@H](CCCCN)C(N)=O)[C@@H](C)CC)C(C)C)[C@@H](C)O)C(C)C [SEQ ID NO: 183] (Ac-IHVTVPADLWDWINK-NH2),< 10 µM
